The values that follow come from patent US7435837B2, “Dihydrobenzofuranyl alkanamine derivatives and methods for using same” (Wyeth, priority 2003, dated 2008).

The experiment has as its target T1, human 5-HT2C receptor (Homo sapiens, UniProt P28335).
T1 sequence (P28335 33-458): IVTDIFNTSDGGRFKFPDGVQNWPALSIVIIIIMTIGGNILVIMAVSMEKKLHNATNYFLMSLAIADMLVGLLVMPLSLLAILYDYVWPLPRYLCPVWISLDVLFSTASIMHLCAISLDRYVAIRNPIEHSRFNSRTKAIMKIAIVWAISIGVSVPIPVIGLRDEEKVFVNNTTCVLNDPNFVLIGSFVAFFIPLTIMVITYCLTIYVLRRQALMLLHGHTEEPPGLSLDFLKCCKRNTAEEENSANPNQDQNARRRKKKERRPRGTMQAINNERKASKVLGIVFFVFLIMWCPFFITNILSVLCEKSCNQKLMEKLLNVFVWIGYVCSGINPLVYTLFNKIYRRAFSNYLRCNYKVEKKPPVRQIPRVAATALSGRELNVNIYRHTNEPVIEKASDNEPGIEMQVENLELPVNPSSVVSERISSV
Kind of experiment: 5-HT2C receptor-stimulated calcium mobilization (FLIPR) in CHO cells.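 As to all read-outs here: Fluo-3-AM fluorescence read on FLIPR every 1 s, agonist added after 10 baseline reads, response taken as peak minus lowest raw fluorescence count.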 The experiment is classed as cell-based. The conditions noted are these: for Emax: CHO, read-out: 5-HT2C Function Emax (%); for EC50: calcium mobilization, CHO cells stably expressing human 5-HT2C, read-out: 5-HT2C Function EC50. On the technique in general: Calcium flux is commonly read through the fluorescence of an indicator in the cells.

The mark [1] stands for this setting: percentage of the response observed with a maximally effective concentration of 5-HT.

Usually Emax stands for the greatest response seen or fitted, relative to the assay's reference. What is called EC50 is the concentration that produces a half-maximal response. In the case of `Cc1cccc(-c2cccc3c2OC(CN)C3)c1C` (racemic) [Example 154, (±)-1-[7-(2,3-dimethylphenyl)-2,3-dihydro-1-benzofuran-2-yl]methanamine], the EC50 is 65 nM. The maximal response (Emax) under setting [1] came to 90%.
The like results for `NCC1Cc2cccc(-c3cccc(F)c3F)c2O1` (racemic) [Example 160, (±)-{[7-(2,3-difluorophenyl)-2,3-dihydro-1-benzofuran-2-yl]methyl}amine] were, in that order, 32 nM and 100%.
In the same order, the values of `Fc1cc2c(c(-c3c(Cl)cccc3Cl)c1)OC(CNC1CC1)C2` (racemic) [Example 231, (±)-N-{[7-(2,6-dichlorophenyl)-5-fluoro-2,3-dihydro-1-benzofuran-2-yl]methyl}cyclopropanamine] are 0.4 nM and 80%.
In the same order, the values of `Fc1cc2c(c(-c3c(Cl)cccc3Cl)c1)OC(CNCC1CC1)C2` (racemic) [Example 232, (±)-1-cyclopropyl-N-{[7-(2,6-dichlorophenyl)-5-fluoro-2,3-dihydro-1-benzofuran-2-yl]methyl}methanamine] are 114 nM and 50%.
As for `Fc1cc2c(c(-c3c(Cl)cccc3Cl)c1)OC(CNC1CCC1)C2` (racemic) [Example 233, (±)-N-{[7-(2,6-dichlorophenyl)-5-fluoro-2,3-dihydro-1-benzofuran-2-yl]methyl}cyclobutanamine], the EC50 amounted to 614 nM. In addition, under setting [1], the maximal response (Emax) is 20%.
Regarding `CCNCC1Cc2cc(F)cc(-c3c(Cl)cccc3Cl)c2O1` (racemic) [Example 234, (±)-N-{[7-(2,6-dichlorophenyl)-5-fluoro-2,3-dihydro-1-benzofuran-2-yl]methyl}ethanamine], the EC50 turned out to be 11 nM. Under setting [1], the maximal effect (Emax) came out at 90%.
The like results for `CCCNCC1Cc2cc(F)cc(-c3c(Cl)cccc3Cl)c2O1` (racemic) [Example 235, (±)-N-{[7-(2,6-dichlorophenyl)-5-fluoro-2,3-dihydro-1-benzofuran-2-yl]methyl}propan-1-amine] were, in that order, 49 nM and 50%.
As for `CC(C)NCC1Cc2cc(F)cc(-c3c(Cl)cccc3Cl)c2O1` (racemic) [Example 236, (±)-N-{[7-(2,6-dichlorophenyl)-5-fluoro-2,3-dihydro-1-benzofuran-2-yl]methyl}propan-2-amine], the EC50 was 123 nM. Moreover, the Emax under setting [1] came to 70%.
The like results for `Fc1cc2c(c(-c3c(Cl)cccc3Cl)c1)OC(CN1CCCCC1)C2` (racemic) [Example 238, (±)-1-{[7-(2,6-dichlorophenyl)-5-fluoro-2,3-dihydro-1-benzofuran-2-yl]methyl}piperidine] were, in that order, 529 nM and 40%.
On to `Fc1cc2c(c(-c3c(Cl)cccc3Cl)c1)OC(CN1CCOCC1)C2` (racemic) [Example 239, (±)-1-{[7-(2,6-dichlorophenyl)-5-fluoro-2,3-dihydro-1-benzofuran-2-yl]methyl}morpholine], for which the EC50 stood at 1430 nM. Under setting [1], the maximal response (Emax) was determined as 40%.
In the same order, the values of `Fc1cc2c(c(-c3c(Cl)cccc3Cl)c1)OC(CN1CCCC1)C2` (racemic) [Example 240, (±)-1-{[7-(2,6-dichlorophenyl)-5-fluoro-2,3-dihydro-1-benzofuran-2-yl]methyl}pyrrolidine] are 89 nM and 70%.
Take `NCC1Cc2cc(Cl)cc(-c3cccc(F)c3F)c2O1` (racemic) [Example 246, (±)-{[5-chloro-7-(2,3-difluorophenyl)-2,3-dihydro-1-benzofuran-2-yl]methyl}amine]: under setting [1], the “5-HT2C Function Emax (%)” value was 90%.
With `Cc1cccc(C)c1-c1cc(Cl)cc2c1OC(CNC1CC1)C2` (racemic) [Example 267, (±)-N-{[5-chloro-7-(2,6-dimethylphenyl)-2,3-dihydro-1-benzofuran-2-yl]methyl}cyclopropanamine], the EC50 worked out at 730 nM. The Emax under setting [1] turned out to be 80%.
The like results for `Cc1cccc(C)c1-c1cc(Cl)cc2c1OC(CNCC1CC1)C2` (racemic) [Example 268, (±)-N-{[5-chloro-7-(2,6-dimethylphenyl)-2,3-dihydro-1-benzofuran-2-yl]methyl}(cyclopropylmethyl)amine] were, in that order, 961 nM and 50%.
The like results for `Cc1cccc(C)c1-c1cc(Cl)cc2c1OC(CNC1CCC1)C2` (racemic) [Example 269, (±)-N-{[5-chloro-7-(2,6-dimethylphenyl)-2,3-dihydro-1-benzofuran-2-yl]methyl}cyclobutanamine] were, in that order, 5120 nM and 20%.
In the same order, the values of `CCNCC1Cc2cc(Cl)cc(-c3c(C)cccc3C)c2O1` (racemic) [Example 271, (±)-N-{[5-chloro-7-(2,6-dimethylphenyl)-2,3-dihydro-1-benzofuran-2-yl]methyl}ethanamine] are 594 nM and 90%.
`Cc1cccc(C)c1-c1cc(Cl)cc2c1OC(CNC(C)C)C2` (racemic) [Example 272, (±)-N-{[5-chloro-7-(2,6-dimethylphenyl)-2,3-dihydro-1-benzofuran-2-yl]methyl}propan-2-amine]: the half-maximal effective concentration (EC50) came out at 845 nM. Also, the maximal response (Emax) under setting [1] amounted to 70%.
In the same order, the values of `Cc1cccc(C)c1-c1cc(Cl)cc2c1OC(CN(C)C)C2` (racemic) [Example 274, (±)-{[5-chloro-7-(2,6-dimethylphenyl)-2,3-dihydro-1-benzofuran-2-yl]methyl}dimethylamine] are 330 nM and 70%.
The like results for `CCCNCC1Cc2cc(Cl)cc(-c3c(C)cccc3C)c2O1` (racemic) [Example 278, (±)-N-{[5-chloro-7-(2,6-dimethylphenyl)-2,3-dihydro-1-benzofuran-2-yl]methyl}propan-1-amine] were, in that order, 726 nM and 60%.
Turning to `Cc1cccc(C)c1-c1cc(Cl)cc2c1OC(CN1CCNCC1)C2` (racemic) [Example 279, (±)-1-{[5-chloro-7-(2,6-dimethylphenyl)-2,3-dihydro-1-benzofuran-2-yl]methyl}piperazine], the EC50 is 155 nM. Besides, the maximal response (Emax) under setting [1] amounted to 70%.
The like results for `Cc1cccc(C)c1-c1cc(Cl)cc2c1OC(CN1CCCC1)C2` (racemic) [Example 280, (±)-1-{[5-chloro-7-(2,6-dimethylphenyl)-2,3-dihydro-1-benzofuran-2-yl]methyl}pyrrolidine] were, in that order, 288 nM and 70%.
For the compound `Clc1cccc(Cl)c1-c1cccc2c1OC(CNC1CC1)C2` (racemic) [Example 391, (±)-N-{[7-(2,6-dichlorophenyl)-2,3-dihydro-1-benzofuran-2-yl]methyl}cyclopropanamine], the EC50 worked out at 0.2 nM. The Emax under setting [1] amounted to 80%.
The like results for `CNCC1Cc2cccc(-c3cccc(C)c3C)c2O1` (racemic) [Example 422, (±)-[(N-methyl-1-[7-(2,3-dimethylphenyl)-2,3-dihydro-1-benzofuran-2-yl]methanamine] were, in that order, 443 nM and 80%.
The like results for `CNCC1Cc2cccc(-c3ccc(F)cc3F)c2O1` (racemic) [Example 424, (±)-[(N-methyl-1-[7-(2,4-difluorophenyl)-2,3-dihydro-1-benzofuran-2-yl]methanamine] were, in that order, 49 nM and 90%.
On to `CNCC1Cc2cccc(-c3ccc(Cl)cc3Cl)c2O1` (racemic) [Example 425, (±)-[(N-methyl-1-[7-(2,4-dichlorophenyl)-2,3-dihydro-1-benzofuran-2-yl]methanamine], for which the EC50 was 9 nM. Besides, under setting [1], the maximal response (Emax) is 100%.
In the same order, the values of `CNCC1Cc2cccc(-c3ccc(OC)cc3OC)c2O1` (racemic) [Example 426, (±)-[(N-methyl-1-[7-(2,4-dimethoxyphenyl)-2,3-dihydro-1-benzofuran-2-yl]methanamine] are 17 nM and 100%.
The like results for `CNCC1Cc2cccc(-c3cc(C)ccc3C)c2O1` (racemic) [Example 427, (±)-[(N-methyl-1-[7-(2,5-dimethylphenyl)-2,3-dihydro-1-benzofuran-2-yl]methanamine] were, in that order, 298 nM and 80%.
In the same order, the values of `CNCC1Cc2cccc(-c3cc(F)ccc3F)c2O1` (racemic) [Example 428, (±)-[(N-methyl-1-[7-(2,5-difluorophenyl)-2,3-dihydro-1-benzofuran-2-yl]methanamine] are 69 nM and 80%.
For the compound `CNCC1Cc2cccc(-c3cc(Cl)ccc3OC)c2O1` (racemic) [Example 430, (±)-[(N-methyl-1-[7-(5-chloro-2-methoxyphenyl)-2,3-dihydro-1-benzofuran-2-yl]methanamine], the concentration for a half-maximal effect (EC50) was found to be 448 nM. Also, the maximal response (Emax) under setting [1] is 80%.
For the compound `CNCC1Cc2cccc(-c3cc(Cl)ccc3C)c2O1` (racemic) [Example 431, (±)-[(N-methyl-1-[7-(5-chloro-2-methylphenyl)-2,3-dihydro-1-benzofuran-2-yl]methanamine], the half-maximal effective concentration (EC50) was 63 nM. Further, the maximum response (Emax) under setting [1] is 90%.
In the same order, the values of `CNCC1Cc2cccc(-c3c(C)cccc3C)c2O1` (racemic) [Example 432, (±)-[(N-methyl-1-[7-(2,6-dimethylphenyl)-2,3-dihydro-1-benzofuran-2-yl]methanamine] are 72 nM and 80%.
